Data taken from article PMC4950264 (Molecular Ecology, 2016).

Target: T1, CYP6Z1 (Anopheles funestus, UniProt Z9NKG6IF05)
T1 sequence (Z9NKG6IF05 1-492): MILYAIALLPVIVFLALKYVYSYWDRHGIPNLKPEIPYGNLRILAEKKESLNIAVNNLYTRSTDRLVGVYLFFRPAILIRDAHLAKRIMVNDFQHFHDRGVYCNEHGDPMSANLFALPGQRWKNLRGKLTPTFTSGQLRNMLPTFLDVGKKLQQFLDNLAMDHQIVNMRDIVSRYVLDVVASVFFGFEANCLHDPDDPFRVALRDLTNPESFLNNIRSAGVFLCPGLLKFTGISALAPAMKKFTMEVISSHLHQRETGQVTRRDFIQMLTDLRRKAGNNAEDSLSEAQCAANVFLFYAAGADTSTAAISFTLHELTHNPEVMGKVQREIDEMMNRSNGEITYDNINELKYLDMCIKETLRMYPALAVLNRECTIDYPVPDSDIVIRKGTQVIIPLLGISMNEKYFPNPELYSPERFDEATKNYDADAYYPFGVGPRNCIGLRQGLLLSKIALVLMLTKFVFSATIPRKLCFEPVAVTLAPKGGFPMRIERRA

SMILES	IC50 [µM]
Clc1ccc(C(c2ccc(Cl)cc2)C(Cl)(Cl)Cl)cc1 [DDT]	8.9
CNC(=O)Oc1cccc2c1OC(C)(C)O2 [bendiocarb]	9.5
